Assay results reported in publication PMC9430628 (Microbiology Spectrum, 2022).

Assays:
[1] = system: T1, rADH3 (amidohydrolase ADH3); details: conditions not given here (as in the authors' earlier paper); cited from earlier work
T1 construct: gene H7691_12935

[2] = system: rNA (N-acyl-L-amino acid amidohydrolase NA); assay: HPLC of OTalpha formed, Michaelis-Menten nonlinear fit; assay type: biochemical, Stenotrophomonas sp. CW117; details: PBS pH 7.2, 42 °C, 6 h; OTA 15-65 μg/L

C[C@@H]1Cc2c(Cl)cc(C(=O)N[C@@H](Cc3ccccc3)C(=O)O)c(O)c2C(=O)O1 [Ochratoxin A]
Km [1]: 0.039 µM | Km [2]: 3.8 µM
